Reference: US7592352B2, “Substituted thieno and furo-pyridines” (SmithKline Beecham Corporation, priority 2003, dated 2009)

Columns and labels:
Assay type in all cases: biochemical
[1] = target: T1, Src (Homo sapiens, UniProt P12931); experiment: Src enzyme assay (HTRF); conditions: N-85 Src, 10 μM ATP, pIC50 = -log10(IC50) in Molar
T1 construct: precede the first globular domain (amino acids 86-536, BR# 455)
Source text: The Src enzyme assay used Homogeneous Time Resolved Fluorescence (HTRF) assay technology to measure the enzyme activity. HTRF is based on fluorescence resonance energy transfer between a Europium-labeled phospho-tyrosine antibody (donor) and Allophycocyanin (APC) conjugated to streptavidin (acceptor). This method measured the ability of the purified enzymes to catalyze the transfer of the γ-phosphate from ATP onto tyrosine residues in a biotinylated synthetic peptide. The peptide used for the Src enzyme activity assay was biotin-(6-amino caproic acid)-AAAQQIYGQI-NH2. The enzyme used was baculovirus expressed N-85 Src with the deletion of first 85 amino acids, which precede the first globular domain (amino acids 86-536, BR# 455).
To preactivate enzyme, 180 μM N-85 Src was incubated with 5 mM ATP and 50 mM MgCl2 for 40 min on ice. The preactivated enzyme (0.4 nM final concentration) was then incubated for 30 min at room temperature in either 96-well or 384-well plates containing 200 nM peptide, 10 μM ATP, 0.05 mg/ml MgCl2, and test compound in 0.1 M HEPES pH 7.5. Each reaction was first stopped by the addition of 45 mM EDTA in 0.1 M HEPES pH7.5, then, HTRF reagent was added to measure the signal. After 10 min incubation at room temperature, the plates were read at 665 nm on a Wallac Victor reader with a time delay. The percent inhibition of activity was calculated relative to positive (C1) and negative (C2, EDTA added) control wells using, 100*(1−(U1−C2)/(C1−C2)). The concentration of test compound yielding 50% inhibition was determined using the equation, y=((Vmax*x)/(K+x))+Y2, where “K” was equal to the IC50. The IC50 values were converted to pIC50 values, i.e., −log IC50 in Molar concentration.

[2] = target: T2, human TIE2 (Homo sapiens, UniProt Q02763); experiment: TIE-2 enzyme assay (LANCE method); conditions: GST-TIE2, 80 uM ATP, pIC50 = -log10(IC50) in Molar
T2 construct: made in house
T2 sequence (Q02763 762-1104): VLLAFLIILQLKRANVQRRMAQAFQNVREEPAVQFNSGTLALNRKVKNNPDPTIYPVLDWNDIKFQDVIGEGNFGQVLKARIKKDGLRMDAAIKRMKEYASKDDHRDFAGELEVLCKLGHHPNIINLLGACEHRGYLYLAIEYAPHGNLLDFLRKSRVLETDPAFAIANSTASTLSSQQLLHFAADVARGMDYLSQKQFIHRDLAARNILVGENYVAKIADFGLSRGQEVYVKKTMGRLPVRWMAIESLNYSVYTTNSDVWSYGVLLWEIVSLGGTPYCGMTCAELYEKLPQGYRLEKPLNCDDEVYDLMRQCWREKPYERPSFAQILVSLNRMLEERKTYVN
Source text: The TIE-2 enzyme assay used the LANCE method (Wallac) and GST-TIE2, baculovirus expressed recombinant constructs of the intracellular domains of human TIE2 (amino acids 762-1104, GenBank Accession # L06139) tagged by GST). The method measured the ability of the purified enzymes to catalyse the transfer of the γ-phosphate from ATP onto tyrosine residues in a biotinylated synthetic peptide, D1-15 (biotin-C6-LEARLVAYEGWVAGKKKamide). This peptide phosphorylation was detected using the following procedure: for enzyme preactivation, GST-TIE2 was incubated for 30 mins at room temperature with 2 mM ATP, 5 mM MgCl2 and 12.5 mM DTT in 22.5 mM HEPES buffer (pH7.4). Preactivated GST-TIE2 was incubated for 30 mins at room temperature in 96 well plates with 1 uM D1-15 peptide, 80 uM ATP, 10 mM MgCl2, 0.1 mg/ml BSA and the test compound (diluted from a 10 mM stock in DMSO, final DMSO concentration was 2.4%) In 1 mM HEPES (pH7.4). The reaction was stopped by the addition of EDTA (final concentration 45 mM). Streptavidin linked-APC (allophycocyanin, Molecular Probe) and Europium-labeled anti-phosphorylated tyrosine antibody (Wallac) were then added at the final concentration of 17 ug/well and 2.1 ug/well, respectively. The APC signal was measured using an ARVO multilabel counter. (Wallac Berthold Japan). The percent inhibition of activity was calculated relative to blank control wells. The concentration of test compound that inhibits 50% of activity (IC50) was interpolated using nonlinear regression (Levernberg-Marquardt) and the equation, y=Vmax (1−x/(K+x))+Y2, where “K” was equal to the IC50. The IC50 values were converted to pIC50 values, i.e., −log IC50 in Molar concentration.

[3] = target: T3, VEGFR-2 (Homo sapiens, UniProt P35968); experiment: VEGFR-2 enzyme assay (LANCE method); conditions: GST-VEGFR2, 75 uM ATP, pIC50 = -log10(IC50) in Molar
T3 construct: GST-VEGFR2, baculovirus expressed recombinant constructs of the intracellular domains; made in house
T3 sequence (P35968 786-1356 limits assumed): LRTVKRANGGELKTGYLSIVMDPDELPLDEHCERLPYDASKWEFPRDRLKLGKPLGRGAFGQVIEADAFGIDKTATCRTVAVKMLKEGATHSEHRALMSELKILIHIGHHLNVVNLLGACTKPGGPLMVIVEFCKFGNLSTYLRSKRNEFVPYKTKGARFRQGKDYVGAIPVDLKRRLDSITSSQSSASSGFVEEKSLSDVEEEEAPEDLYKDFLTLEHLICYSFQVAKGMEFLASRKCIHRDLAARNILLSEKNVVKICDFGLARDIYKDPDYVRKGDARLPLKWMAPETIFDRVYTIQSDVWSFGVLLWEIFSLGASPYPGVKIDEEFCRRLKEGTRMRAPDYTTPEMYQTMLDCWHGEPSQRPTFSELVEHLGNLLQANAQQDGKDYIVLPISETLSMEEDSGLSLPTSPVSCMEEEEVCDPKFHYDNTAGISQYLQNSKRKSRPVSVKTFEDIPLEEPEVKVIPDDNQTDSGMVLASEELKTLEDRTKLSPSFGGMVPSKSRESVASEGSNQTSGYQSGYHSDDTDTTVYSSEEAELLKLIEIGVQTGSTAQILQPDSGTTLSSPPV
Experimental: The VEGF enzyme assay used the LANCE method (Wallac) and GST-VEGFR2, baculovirus expressed recombinant constructs of the intracellular domains of human […] tagged by GST. […] The reaction was stopped by the addition of EDTA (final concentration 50 mM). […] The APC signal was measured using an ARVO multilabel counter (Wallac Berthold, Japan). The percent inhibition of activity was calculated relative to blank control wells. […] The IC50 values were converted to pIC50 values, i.e., −log IC50 in Molar concentration.

[4] = target: T4, human EphB4 (Homo sapiens, UniProt P54760); experiment: EphB4 enzyme assay (Scintillation Proximity Assay); conditions: GST-EphB4, 1 uM ATP, SPA; pIC50 = -log10(IC50) in Molar
T4 construct: human EphB4 (amino acids 600-914, BR # 21454)
T4 sequence (P54760 600-914): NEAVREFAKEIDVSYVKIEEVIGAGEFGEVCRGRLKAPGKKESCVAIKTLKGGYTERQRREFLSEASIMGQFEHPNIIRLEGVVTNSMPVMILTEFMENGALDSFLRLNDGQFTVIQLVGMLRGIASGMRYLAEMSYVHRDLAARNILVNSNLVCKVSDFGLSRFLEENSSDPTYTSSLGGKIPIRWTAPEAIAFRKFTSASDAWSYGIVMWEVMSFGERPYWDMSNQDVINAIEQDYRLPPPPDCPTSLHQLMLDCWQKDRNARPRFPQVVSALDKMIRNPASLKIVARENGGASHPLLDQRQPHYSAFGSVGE
Experimental: The EphB4 enzyme assay used Scintillation Proximity Assay technology to measure enzyme activity. This method measured the ability of the purified enzymes to catalyse the transfer of the γ-phosphate from ATP onto tyrosine residues in a biotinylated synthetic peptide. […] Each reaction was stopped by the addition of 0.1 mg Streptavidin SPA beads in 100 mM EDTA/1×PBS, pH 7.2. The signal was measured using a Wallac Trilux scintillation counter (Wallac). The percent inhibition of activity was calculated relative to positive (C1) and negative (C2) control wells using, 100*(1−(U1−C2)/(C1−C2)). The concentration of test compound was determined using the equation, y=((Vmax*x)/(K+x))+Y2, where “K” was equal to the IC50. The IC50 values were converted to pIC50 values, i.e., −log IC50 in Molar concentration.

T1 sequence (P12931 86-536): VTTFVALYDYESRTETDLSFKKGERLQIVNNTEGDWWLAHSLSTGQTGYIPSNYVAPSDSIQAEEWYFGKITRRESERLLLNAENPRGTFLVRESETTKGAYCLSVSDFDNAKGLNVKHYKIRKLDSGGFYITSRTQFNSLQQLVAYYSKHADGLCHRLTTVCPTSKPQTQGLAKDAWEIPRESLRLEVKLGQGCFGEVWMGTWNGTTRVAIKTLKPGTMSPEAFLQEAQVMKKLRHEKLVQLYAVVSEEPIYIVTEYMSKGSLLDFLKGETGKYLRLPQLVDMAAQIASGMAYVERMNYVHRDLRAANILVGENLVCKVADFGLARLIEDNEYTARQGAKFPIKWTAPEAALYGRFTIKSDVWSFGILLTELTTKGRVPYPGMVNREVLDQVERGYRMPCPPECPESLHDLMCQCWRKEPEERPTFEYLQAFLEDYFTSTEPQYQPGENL

## Nc1ncc(-c2cccc(Cl)c2)c2occ(-c3ccc(NC(=O)Nc4cc(C(F)(F)F)ccc4F)cc3)c12 [Ia]
[1]
  IC50: 0.0102 to 0.1 µM

## COc1cc(-c2cnc(N)c3c(-c4ccc5[nH]ccc5c4)csc23)cc(OC)c1OC [Iaa, 4-Amino-3 (1H-Indol-5-yl)-7-(3,4,5-trimethoxyphenyl)-thieno[3,2-c]pyridine]
[2]
  IC50: 0.102 to 1 µM

## Nc1nccc2occ(-c3ccc(NC(=O)Nc4cc(C(F)(F)F)ccc4F)cc3)c12 [Ib]
[2]
  IC50: 0.0102 to 0.1 µM
[1]
  IC50: 0.102 to 1 µM
[3]
  IC50: 0.00324 to 0.0316 µM
[4]
  IC50: 0.00324 to 0.0316 µM

## Nc1ncc(-c2cccc(S(N)(=O)=O)c2)c2occ(-c3ccc(NC(=O)Nc4cc(C(F)(F)F)ccc4F)cc3)c12 [Id]
[2]
  IC50: 0.001 to 0.01 µM
[1]
  IC50: 0.001 to 0.01 µM
[4]
  IC50: 0.000316 to 0.00316 µM

## Nc1ncc(-c2cccnc2)c2occ(-c3ccc(NC(=O)Nc4cc(C(F)(F)F)ccc4F)cc3)c12 [Ie]
[3]
  IC50: 0.000316 to 0.00316 µM
